Data on three compounds can be found in patent publication US20210371855A1, “METHODS OF INHIBITING PROLIFERATIVE CELLS” (IDEAYA BIOSCIENCES, INC., priority 2018, published 2021).

One assay relates to MMR-deficient cells. As to conditions: Yan et al. 2003; cited from earlier work.
The test system of a further assay is MLH1 reexpressing cells. Briefly: 6-thioguanine sensitivity of MLH1 reexpressing cells. Format: cell-based. As to conditions: FIG. 8C.
A further assay has as its system MMR-proficient cells. The settings on record: Yan et al. 2003; cited from earlier work.
For assay [1], the system named is MSS cell lines, SW620 and SW948. The experiment in a line: Proliferation with WRN inhibitors, IncuCyte live-cell counting over 6 days. Format: cell-based. The settings on record: SW620 and SW948, 6 days, FIG. 12. The method, then: (§1) Cell lines were infected with NucLight Red lentivirus (Essen Biosciences cat #4476) to express a red fluorescent protein in the nucleus thus enabling live-cell counting. Two cell lines with high microsatellite instability (MSI), HCT116 and RKO, and two microsatellite stable (MSS) cell lines, SW620 and SW948, were treated with WRN inhibitors, NSC 19630 (Calbiochem cat #681647) and NSC 617145 (Sigma cat #SML 1005) as follows. Cells were counted and seeded in triplicate into a 96-well plate (500 cells/well for MSI and 1000 cells/well for MSS). The next day, the cells were treated with compounds and monitored over 6 days in an IncuCyte ZOOM instrument. The cell count from the last time point was used to calculate IC50 values using GraphPad Prism 7.

For assay [2], the system named is MSI cell lines, HCT116 and RKO. The description is as above. Type of assay: cell-based. The settings on record: FIG. 12. The method, then: as §1

In the case of `Nc1nc2nc[nH]c2c(=S)[nH]1` [6-TG, 6-thioguanine], the figures for the “sensitivity of cells to 6-thioguanine” value in the assay on MMR-deficient cells and with MMR-proficient cells were “resistant” and “sensitive”, respectively. Further, the “sensitivity of cells to 6-TG” value in the assay with MLH1 reexpressing cells is listed as “more sensitive”.
As for `CCC(=O)OCN1C(=O)C=CC1=O` [NSC 19630], the “sensitivity of MSS cell lines to the inhibitors” value in assay [1] is recorded as “differences in sensitivity”. For the same compound, in assay [2], the “effect on proliferation of MSI cell lines” value is “decreased proliferation”.
For `CC(C)(CN1C(=O)C(Cl)=C(Cl)C1=O)CN1C(=O)C(Cl)=C(Cl)C1=O` [NSC 617145], in assay [1], the “sensitivity of MSS cell lines to the inhibitors” value is given as “differences in sensitivity”. Further, the “effect on proliferation of MSI cell lines” value in assay [2] is on record as “decreased proliferation”.
